In patent publication US8592451B2, “Reversible nondepolarizing neuromuscular blockade agents and methods for their use” (Cornell University, priority 2009, dated 2013):

Experiments:
[1] = Stability of the CW 002-cysteine adduct (HPLC); format: physicochemical
Experimental: [drawing 58] was prepared in one step from CW 002. CW 002 was dissolved in deionized water to give a solution concentration of 37 mg/ml at a pH of 6.6. A 5 mol % excess of L-cysteine hydrochloride monohydrate was added in one portion at ambient temperature to give a solution pH of 2. Stirring for 12 hours gave complete consumption of CW 002, as observed by HPLC. CW002-Cys was isolated as an off-white solid after reaction mixture lyophilization. Product purity was estimated at 95% by HPLC peak area %.
At low pH and temperature, one new peak was formed on L-cysteine addition as the peak corresponding to CW 002 diminished. This new peak corresponds to the initial peak observed in the in vitro L-cysteine adduction experiments at 37° C. and a pH of 7.4. At elevated temperature and pH, such as conditions used to mimic in vivo reactivity, this initial peak quickly diminishes over time (t½˜60 min) while two new adduct peaks arise secondary to alkaline hydrolysis of the adduct. However, at ambient temperature and a pH of 2, the initial adduct is stable for >24 hours, allowing for isolation of the intermediate.

[2] = tested on: twitch of the extensor digitorum; assay: Neuromuscular blocking potency and duration in anesthetized rhesus monkeys; format: in vivo, rhesus monkeys (Macaca mulatta); details: for Duration (± SD/SEM), from injection to recovery of twitch to 95% of baseline: spontaneous recovery
Experimental: Experiments were approved by the Institutional Animal Care and Use Committee of Weill Medical College of Cornell University (New York, N.Y.) and of Albany Medical College (Albany, N.Y.), where the studies were conducted. A colony of 10 adult male monkeys (Macaca mulatta) weighing 8-18 kg was studied at ˜6 week intervals. Animals were housed and cared for in accordance with the Guide for Care and Use of Laboratory Animals (National Research Council, Washington, D.C.). They were fed a standard Old World monkey diet, enriched with fruits and vegetables, and other dietary novelties and were followed throughout the study to verify normal health by physical examination, body weight, and clinical laboratory studies (Complete Blood Count, Blood Urea Nitrogen and creatinine, and liver function tests).
On the day of each study, monkeys received ketamine (7-10 mg/kg i.m.) followed by tracheal intubation under topical anesthesia with 4% lidocaine. Ventilation was controlled at 10 mL/kg and 20 breaths/min with isoflurane (1.0-2.0%) and N2O/O2 (2:1 mixture). Ringers lactate was administered at ˜10 ml kg^−1 h^−1. Arterial pressure was monitored from a femoral, superficial tibial, or radial (22 gauge) cannula. Heart rate was measured by tachograph from the arterial pulse wave. Core temperature was kept at 36.5-38.0° C. by warming blankets. Electrocardiogram and pulse oximetry were monitored continuously.
Needle electrodes (25 gauge) transmitting square-wave pulses of 0.2 msec duration at supramaximal voltage which were generated by a Grass S-88 stimulator (Grass Instruments, Quincy, Mass.) were placed at the peroneal nerve at the knee to elicit twitch responses of the extensor digitorum of the foot at 0.15 Hz. A small slip (10-20%) of the tendon was dissected free under sterile technique and tied to a Grass FT 10 force transducer (Grass Instruments, Quincy, Mass.) at a baseline tension of 50 gm. Train-of four stimulation (TOF, 2 Hz for 2 sec) was interposed at appropriate points, especially 1-2 min prior to NMBA dosing and following recovery of twitch to 95% of baseline, where TOF was subsequently evaluated every 1-2 min.
Recordings of circulatory and neuromuscular data were made on a Grass 7B polygraph (Grass Instruments). A baseline period of 15-20 min was allowed for stabilization of recordings prior to dosing.^2
Dose-response curves for twitch blockade by gantacurium, CW 002, CW 011, cisatracurium, CW002-Cys, NB 938-69, NB 1064-81, NB 802-17 (CW 001), NB 832-65, and NB 1163-79, structures of which are all shown above, were generated as follows. […] Successive doses were separated by at least three estimated half lives beyond complete recovery of the previous dose to TOF of 110-120%, which is normal for these monkeys. Only the first one or two doses yielding 5 to 99% blockade were included from any single experiment for computation of dose-response data.
Comparative studies of spontaneous recovery versus antagonism/reversal were done at least 3 estimated half-lives following dose-response studies.
ED 50 and ED 95 were computed from the regression of log dose vs. the logit of percentage blockade of twitch.
CW002-Cys, the L-cysteine adduct of CW 002, was available in limited quantity and was administered in cumulative fashion to three animals to compare approximate potency and duration of effect versus its parent compound CW 002.

[3] = tested on: twitch contractions of the extensor digitorum muscle; assay: Rhesus monkey anesthesia bioassay for potency and duration (substituent and stereochemical comparison, preliminary studies); format: in vivo; details: rhesus monkeys
Experimental: Two stereoisomeric structures, CW 002 (R-trans, R-trans), and CW 003 (R-cis, R-cis) were tested in the rhesus monkey anesthesia bioassay for potency and duration. A third compound, CW 001 (R-trans, R-trans) bearing an additional methoxyl group on each of the two benzyl groups in the molecule, was also tested.
Rhesus monkeys were anesthetized with ketamine (7.5 mg/Kg) given intramuscularly or intravenously. Anesthesia was maintained with a mixture of isoflurane (1.5%), nitrous oxide (60%) and oxygen (40%). The common peroneal nerve was stimulated supramaximally with square wave pulses of 0.2 m sec duration at a rate of 0.15 Hz. Twitch contractions were recorded via the tendon of the extensor digitorum muscle.
In all animals, the trachea was intubated and ventilation was controlled at 12-15 ml/kg, 18-24 breaths per minute. A peripheral vein and artery were cannulated for drug administration and for recording of arterial pressure, respectively. In preliminary studies a neuromuscular blocking agent having one of the following structures was administered intravenously.

Compound | half-life ([1]; 37° C., pH 7.4, read-out: t½ of initial adduct peak (alkaline hydrolysis of the adduct)) [h] | time the initial adduct is stable ([1]; ambient temperature, pH of 2) [h] | Duration, spontaneous recovery (times approximate) ([2]; following cumulative dosage, three animals) | Duration (± SD/SEM), from injection to recovery of twitch to 95% of baseline ([2]; administered dose 0.03 mg/kg) [min] | Duration (± SD/SEM), from injection to recovery of twitch to 95% of baseline ([2]; administered dose 0.10 mg/kg) [min] | ED 95 (± SD/SEM) ([2]; twitch blockade, monkeys under isoflurane, twitch at 0.15 Hz, calculated from dose-response curve) [mg/kg] | reversibility of effect by cysteine or glutathione [3] | Potency (ED95 mg/kg) ([3]; intravenously, preliminary studies) [mg/kg] | Duration at 4X ED95 ([3]; preliminary studies, 4X ED95, head prints no unit (column beside it: minutes)) | Duration (minutes), from injection to 95% twitch recovery ([3]; preliminary studies, dose not printed (beside ED95 column)) [min]
COc1ccc(C[C@@H]2c3cc(OC)c(OC)cc3CC[N@@+]2(C)CCCOC(=O)CC(SC[C@@H](N)C(=O)O)C(=O)OCCC[N@+]2(C)CCc3cc(OC)c(OC)cc3[C@H]2Cc2ccc(OC)c(OC)c2)cc1OC (stereo partly shown) [CW002-Cys] | ~1 | > 24 | ~30-35^+++ min |  |  |  |  |  |  | 
COc1cc2c(cc1OC)[C@@H](Cc1cc(OC)c(OC)c(OC)c1)[N@+](C)(CCCOC(=O)/C=C/C(=O)OCCC[N@+]1(C)CCc3cc(OC)c(OC)cc3[C@H]1Cc1cc(OC)c(OC)c(OC)c1)CC2 [NB 802-17] |  |  |  | 35.0 ± 15.0 | 49.4 ± 5.8 | 0.033 ± 0.005 | reversible | 0.04 | 50-60 | 30 to 40
